# Experiments:
# barnyardgrass [1] = assay: Test A pre-/postemergence herbicide test; type: in vivo, Echinochloa crus-galli
# Outline: (§1)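 Plants are held in greenhouse about ten days after treatment, then compared with untreated controls and scored 0 (no effect) to 100 (complete control). Preemergence dosing is a directed soil spray on sown sandy loam; postemergence dosing is spray to runoff at 2–10 cm height.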
# giant foxtail [2] = assay: Test A pre-/postemergence herbicide test; type: in vivo, Setaria faberi
# Outline: as §1
# wild oat = assay: Test B postemergence herbicide test; type: in vivo, Avena fatua; conditions: postemergence, visual rating, scale 0 (no effect) to 100 (complete control)
# Outline: (§2)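 Formulated test chemicals went onto postemergence plants measuring 2 to 18 cm, at one to four leaves. For the paddy assay, species had reached two leaves. Scoring took place 13–15 days later by eye, relative to untreated plants, using 0 for no effect up to 100 for full control.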
# cocklebur = assay: Test B pre-/postemergence herbicide test; type: in vivo, Xanthium strumarium; conditions: for Plant response rating, Cocklebur: preemergence; for Cocklebur plant response rating: postemergence, visual rating, scale 0 (no effect) to 100 (complete control)
# Outline: (§3)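 Species tested were Echinochloa crus-galli, Ipomoea coccinea, Xanthium strumarium and Oryza sativa, treated both before emergence and at the 1- to 4-leaf stage; rice and barnyardgrass were also tested under flooding at 2 leaves. Greenhouse incubation lasted 13–15 days before visual 0–100 scoring.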
# morningglory [3] = assay: Test A pre-/postemergence herbicide test; type: in vivo, Ipomoea spp.
# Outline: as §1
# Surinam grass = assay: Test B pre-/postemergence herbicide test; type: in vivo, Urochloa decumbens; conditions: for Plant response rating, Surinam Grass: preemergence; for Surinam Grass plant response rating: postemergence, visual rating, scale 0 (no effect) to 100 (complete control)
# Outline: (§4)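 Seeds were planted and treated preemergence with compounds formulated in a non-phytotoxic solvent mixture containing surfactant, while plants at the 1- to 4-leaf stage (2 to 18 cm) received postemergence sprays. Flooded paddy plants were grown to the 2-leaf stage. After 13 to 15 days in a greenhouse, injury was visually rated 0–100 against untreated controls.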
# large crabgrass [4] = assay: Test A pre-/postemergence herbicide test; type: in vivo, Digitaria sanguinalis
# Outline: as §1
# wheat = assay: Test B postemergence herbicide test; type: in vivo, Triticum aestivum; design: key to Wheat plant response rating: 0 = no effect, 100 = complete control; conditions: postemergence, visual rating, scale 0 (no effect) to 100 (complete control)
# Outline: as §2
# corn = assay: Test B pre-/postemergence herbicide test; type: in vivo, Zea mays; conditions: for Plant response rating, Corn: preemergence; for Corn plant response rating: postemergence, visual rating, scale 0 (no effect) to 100 (complete control)
# Outline: as §4
# rice [5] = assay: Test B pre-/postemergence herbicide test; type: in vivo, Oryza sativa; conditions: preemergence, 125 g ai/ha; 0 to 100 scale, 0 is no effect, 100 is complete control
# Outline: as §4
# rice [6] = assay: Test B flooded paddy test; type: in vivo, Oryza sativa; conditions: 1000 g ai/ha, visual rating, scale 0 to 100 (0 no effect, 100 complete control), 13 to 15 days
# Outline: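 Visual ratings, 0 (no effect) to 100 (complete control), made versus controls after 13–15 d greenhouse. Paddy plants treated at 2-leaf stage; postemergence plants at 1- to 4-leaf stage, 2–18 cm tall.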
# morningglory [7] = assay: Test B pre-/postemergence herbicide test; type: in vivo, Ipomoea coccinea; conditions: for Plant response rating, Morningglory: preemergence; for Morningglory plant response rating: postemergence, visual rating, scale 0 (no effect) to 100 (complete control)
# Outline: as §3
# giant foxtail [8] = assay: Test B pre-/postemergence herbicide test; type: in vivo, Setaria faberi; conditions: for Plant response rating, Foxtail, Giant: preemergence; for Foxtail, Giant plant response rating: postemergence, visual rating, scale 0 (no effect) to 100 (complete control)
# Outline: as §4
# pigweed = assay: Test B pre-/postemergence herbicide test; type: in vivo, Amaranthus retroflexus; conditions: for Plant response rating, Pigweed: preemergence; for Pigweed plant response rating: postemergence, visual rating, scale 0 (no effect) to 100 (complete control)
# Outline: as §4
# barnyardgrass [9] = assay: Test B pre-/postemergence herbicide test; type: in vivo, Echinochloa crus-galli; conditions: for Plant response rating, Barnyardgrass: preemergence; for Barnyardgrass plant response rating: postemergence, visual rating, scale 0 (no effect) to 100 (complete control)
# Outline: as §3
# ducksalad = assay: Test B flooded paddy test; type: in vivo, Heteranthera limosa; conditions: 1000 g ai/ha, visual rating, scale 0 to 100 (0 no effect, 100 complete control), 13 to 15 days
# Outline: (§5)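 Plants grow to 1- to 4-leaf stage (2–18 cm) for postemergence spraying, or to 2-leaf stage for the paddy test. Formulated compound is applied. Greenhouse holding lasts 13–15 days. Response is scored visually relative to controls, 0 no effect to 100 complete control; a dash means no result.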
# blackgrass = assay: Test B postemergence herbicide test; type: in vivo, Alopecurus myosuroides; conditions: postemergence, visual rating, scale 0 (no effect) to 100 (complete control)
# Outline: as §5
# large crabgrass [10] = assay: Test B pre-/postemergence herbicide test; type: in vivo, Digitaria sanguinalis; conditions: for Plant response rating, Crabgrass, Large: preemergence; for Crabgrass, Large plant response rating: postemergence, visual rating, scale 0 (no effect) to 100 (complete control)
# Outline: as §4
# [11] = test system: small flower umbrella sedge; assay: Test B flooded paddy test; type: in vivo, Cyperus difformis; conditions: 1000 g ai/ha, visual rating, scale 0 to 100 (0 no effect, 100 complete control), 13 to 15 days
# Outline: as §5
# redroot pigweed = assay: Test A pre-/postemergence herbicide test; type: in vivo, Amaranthus retroflexus
# Outline: as §1
# velvetleaf [12] = assay: Test A pre-/postemergence herbicide test; type: in vivo, Abutilon theophrasti
# Outline: as §1
# barnyardgrass [13] = assay: Test B flooded paddy test; type: in vivo, Echinochloa crus-galli; conditions: 1000 g ai/ha, visual rating, scale 0 to 100 (0 no effect, 100 complete control), 13 to 15 days
# Outline: as §5
# velvetleaf [14] = assay: Test B pre-/postemergence herbicide test; type: in vivo, Abutilon theophrasti; conditions: for Plant response rating, Velvetleaf: preemergence; for Velvetleaf plant response rating: postemergence, visual rating, scale 0 (no effect) to 100 (complete control)
# Outline: as §4
# lambsquarters = assay: Test B pre-/postemergence herbicide test; type: in vivo, Chenopodium album; conditions: for Plant response rating, Lambsquarters: preemergence; for Lambsquarters plant response rating: postemergence, visual rating, scale 0 (no effect) to 100 (complete control)
# Outline: as §4
# [15] = Postemergence, 500 g ai/ha, 0 to 100 scale, 0 no effect, 100 complete control
# [16] = Postemergence, 2000 g ai/ha, 0 to 100 scale, 0 no effect, 100 complete control
# [17] = Preemergence, 500 g ai/ha, visual rating, 0 to 100 scale (0 no effect, 100 complete control)
# [18] = Preemergence, 2000 g ai/ha, visual rating, 0 to 100 scale (0 no effect, 100 complete control)
# [19] = 500 g ai/ha, visual rating 0-100, 0 no effect, 100 complete control
# [20] = 125 g ai/ha, 0 to 100 scale, 0 is no effect, 100 is complete control
# [21] = preemergence, 500 g ai/ha, visual injury, 0 to 100 scale (0 no effect, 100 complete control)
smiles,measurement,setting,value
CC(C)NS(=O)(=O)c1cccc(NC(=O)c2cc(C(C)(C)C)nn2C)c1 [Compound 124],Barnyardgrass plant response rating,barnyardgrass [1]; [15],0
same,"Plant response rating, Barnyardgrass",barnyardgrass [1]; [16],0
same,Barnyardgrass plant response rating,barnyardgrass [1]; [17],0
same,Barnyardgrass plant response rating,barnyardgrass [1]; [18],10
same,"Foxtail, Giant plant response rating",giant foxtail [2]; [15],0
same,"Plant response rating, Foxtail, Giant",giant foxtail [2]; [16],0
same,"Foxtail, Giant plant response rating",giant foxtail [2]; [17],0
same,"Foxtail, Giant plant response rating",giant foxtail [2]; [18],0
same,"Oat, Wild plant response rating",wild oat; 125 g ai/ha,0
same,"Oat, Wild plant response rating",wild oat; 500 g ai/ha,10
same,"Plant response rating, Cocklebur",cocklebur; [19],0
same,Cocklebur plant response rating,cocklebur; 125 g ai/ha,0
same,Cocklebur plant response rating,cocklebur; 500 g ai/ha,10
same,"Plant response rating, Cocklebur",cocklebur; [20],0
same,Morningglory plant response rating,morningglory [3]; [15],5
same,"Plant response rating, Morningglory",morningglory [3]; [16],0
same,Morningglory plant response rating,morningglory [3]; [17],5
same,Morningglory plant response rating,morningglory [3]; [18],15
same,"Plant response rating, Surinam Grass",Surinam grass; [19],10
same,Surinam Grass plant response rating,Surinam grass; 125 g ai/ha,10
same,Surinam Grass plant response rating,Surinam grass; 500 g ai/ha,20
same,"Plant response rating, Surinam Grass",Surinam grass; [20],0
same,"Crabgrass, Large plant response rating",large crabgrass [4]; [15],10
same,"Plant response rating, Crabgrass, Large",large crabgrass [4]; [16],10
same,"Crabgrass, Large plant response rating",large crabgrass [4]; [17],30
same,"Crabgrass, Large plant response rating",large crabgrass [4]; [18],15
same,Wheat plant response rating,wheat; 125 g ai/ha,0
same,Wheat plant response rating,wheat; 500 g ai/ha,0
same,"Plant response rating, Corn",corn; [19],0
same,Corn plant response rating,corn; 125 g ai/ha,0
same,Corn plant response rating,corn; 500 g ai/ha,10
same,"Plant response rating, Corn",corn; [20],0
same,"Plant response rating, Rice",rice [5],0
same,Rice plant response rating,rice [6],0
same,"Plant response rating, Morningglory",morningglory [7]; [19],0
same,Morningglory plant response rating,morningglory [7]; 125 g ai/ha,0
same,Morningglory plant response rating,morningglory [7]; 500 g ai/ha,10
same,"Plant response rating, Morningglory",morningglory [7]; [20],0
same,"Plant response rating, Foxtail, Giant",giant foxtail [8]; [19],10
same,"Foxtail, Giant plant response rating",giant foxtail [8]; 125 g ai/ha,0
same,"Foxtail, Giant plant response rating",giant foxtail [8]; 500 g ai/ha,10
same,"Plant response rating, Foxtail, Giant",giant foxtail [8]; [20],0
same,"Plant response rating, Pigweed",pigweed; [19],90
same,Pigweed plant response rating,pigweed; 125 g ai/ha,20
same,Pigweed plant response rating,pigweed; 500 g ai/ha,70
same,"Plant response rating, Pigweed",pigweed; [20],30
same,"Plant response rating, Barnyardgrass",barnyardgrass [9]; [19],10
same,Barnyardgrass plant response rating,barnyardgrass [9]; 125 g ai/ha,0
same,Barnyardgrass plant response rating,barnyardgrass [9]; 500 g ai/ha,0
same,"Plant response rating, Barnyardgrass",barnyardgrass [9]; [20],0
same,Ducksalad plant response rating,ducksalad,70
same,Blackgrass plant response rating,blackgrass; 125 g ai/ha,0
same,Blackgrass plant response rating,blackgrass; 500 g ai/ha,0
same,"Plant response rating, Crabgrass, Large",large crabgrass [10]; [19],0
same,"Crabgrass, Large plant response rating",large crabgrass [10]; 125 g ai/ha,10
same,"Crabgrass, Large plant response rating",large crabgrass [10]; 500 g ai/ha,10
same,"Plant response rating, Crabgrass, Large",large crabgrass [10]; [20],0
same,"Sedge, Umbrella plant response rating",[11],0
same,Pigweed plant response rating,redroot pigweed; [15],30
same,"Plant response rating, Pigweed",redroot pigweed; [16],40
same,Pigweed plant response rating,redroot pigweed; [18],75
same,Pigweed plant response rating,redroot pigweed; [21],20
same,Velvetleaf plant response rating,velvetleaf [12]; [15],10
same,"Plant response rating, Velvetleaf",velvetleaf [12]; [16],10
same,Velvetleaf plant response rating,velvetleaf [12]; [18],15
same,Velvetleaf plant response rating,velvetleaf [12]; [21],0
same,Barnyardgrass plant response rating,barnyardgrass [13],0
same,"Plant response rating, Velvetleaf",velvetleaf [14]; [19],0
same,Velvetleaf plant response rating,velvetleaf [14]; 125 g ai/ha,0
same,Velvetleaf plant response rating,velvetleaf [14]; 500 g ai/ha,10
same,"Plant response rating, Velvetleaf",velvetleaf [14]; [20],0
same,"Plant response rating, Lambsquarters",lambsquarters; [19],80
same,Lambsquarters plant response rating,lambsquarters; 125 g ai/ha,30
same,Lambsquarters plant response rating,lambsquarters; 500 g ai/ha,70
same,"Plant response rating, Lambsquarters",lambsquarters; [20],0

# Source: patent US20060069132A1, “Azolecarboxamide herbicides” (priority 2004, published 2006)
